Measured values as given in patent US20240058457A1, “BTK DEGRADER” (Newave Pharmaceutical Inc., priority 2020, published 2024).

Assays:
Mice PK study = type: in vivo; conditions: CD-1 mouse; for AUCinf(h*ng/mL)/(mg/kg): plasma, route not stated in table (text: oral PK profile)
Method: The pharmacokinetics of compounds were evaluated in CD-1 mouse via Intravenous and Oral Administration. The IV dose was administered as a slow bolus in the Jugular vein, and oral doses were administered by gavage. The formulation for IV dosing is 5% DMSO in 20% HPBCD in water, and the PO formulation is 2.5% DMSO, 10% EtOH, 20% Cremphor EL, 67.5% D5W. The PK time point for the IV arm was 5, 15, 30 min, 1, 2, 4, 6, 8, 12, 24 hours post dose, and for PO arm was 15, 30 min, 1, 2, 4, 6, 8, 12, 24 hours post dose. Approximately 0.03 mL blood was collected at each time point. Blood of each sample was transferred into plastic micro centrifuge tubes containing EDTA-K2 and plasma was collected within 15 min by centrifugation at 4000 g for 5 minutes in a 4° C. centrifuge. Plasma samples were stored in polypropylene tubes. The samples were stored in a freezer at −75±15° C. prior to analysis. Concentrations of compounds in the plasma samples were analyzed using a LC-MS/MS method. WinNonlin (Phoenix™, version 6.1) or other similar software was used for pharmacokinetic calculations. The following pharmacokinetic parameters were calculated, whenever possible from the plasma concentration versus time data: IV administration: C0, CL, Vd, T1/2, AUCinf, AUClast, MRT, Number of Points for Regression; PO administration: Cmax, Tmax, T1/2, AUCinf, AUClast, F %, Number of Points for Regression. The pharmacokinetic data was described using descriptive statistics such as mean, standard deviation. Additional pharmacokinetic or statistical analysis was performed at the discretion of the contributing scientist, and was documented in the data summary.

BTK = molecular target: T1, BTK (Homo sapiens, UniProt Q06187); assay: BTK HTRF degradation assay; type: cell-based; conditions: treatment time 24 h; Cisbio Total-BTK HTRF; Rec-1 / Ramos cells
T1 construct: endogenous in cells; host or cells: Rec-1 cells (ATCC) / Ramos cells
T1 sequence (Q06187 whole entry): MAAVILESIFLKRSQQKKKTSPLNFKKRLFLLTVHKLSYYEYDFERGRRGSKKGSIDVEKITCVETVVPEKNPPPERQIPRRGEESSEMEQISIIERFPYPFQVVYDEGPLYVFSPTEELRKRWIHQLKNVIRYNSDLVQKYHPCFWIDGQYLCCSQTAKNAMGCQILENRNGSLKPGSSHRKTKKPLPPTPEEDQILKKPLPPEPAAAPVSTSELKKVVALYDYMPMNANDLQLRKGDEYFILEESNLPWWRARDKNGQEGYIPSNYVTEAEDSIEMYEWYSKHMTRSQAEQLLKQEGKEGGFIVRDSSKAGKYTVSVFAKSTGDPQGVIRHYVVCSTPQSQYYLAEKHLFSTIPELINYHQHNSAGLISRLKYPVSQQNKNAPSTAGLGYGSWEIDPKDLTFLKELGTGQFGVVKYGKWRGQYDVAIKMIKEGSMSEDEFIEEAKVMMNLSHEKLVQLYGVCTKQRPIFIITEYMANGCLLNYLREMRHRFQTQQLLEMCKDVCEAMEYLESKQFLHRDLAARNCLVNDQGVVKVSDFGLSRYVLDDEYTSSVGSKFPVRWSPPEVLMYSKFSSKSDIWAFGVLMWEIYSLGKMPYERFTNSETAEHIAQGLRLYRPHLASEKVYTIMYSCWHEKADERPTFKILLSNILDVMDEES
Method: Rec-1 cells were obtained from American Type Culture Collection and were grown in RPMI-1640 media (ATCC, 30-2001) supplemented with 10% heat-inactivated FBS (Corning Premium Fetal Bovine Serum from Fisher, MT35015CV). Compounds of the present invention were added to 50,000 Ramos cells in round-bottom 96 well plates with a final DMSO concentration of […] and were incubated at 37° C. 5% CO2 for different time. BTK levels were determined using Cisbio Total-BTK HTRF ([…] Time-Resolved Fluorescence) kit (63ADK064PEG) according to manufacturer's protocol. Briefly, cells were incubated in 1× supplied lysis buffer for 30 minutes. In an opaque white low volume 96 well plate (Cisbio, 66PL96005), cell lysate was combined with two different specific BTK antibodies, one conjugated with Eu3+-Cryptate FRET donor and one conjugated with d2 FRET acceptor. Assay controls include wells containing cell lysate with only the Eu3+-Cryptate FRET donor antibody and wells containing both HTRF antibodies and lysis buffer without cells or control lysate provided by Cisbio. HTRF ratio was calculated as (acceptor signal at 665 nm/donor signal at 620 nm)×[…]. Background HTRF levels were determined from the control well containing the donor, but no acceptor, antibody. Background HTRF levels were subtracted from all samples. Readouts were reported as HTRF levels relative to HTRF levels of DMSO-treated cells. Four-parameter non-linear regressions were performed in GraphPad Prism 7.02 to obtain DC50 values.

SMILES	AUCinf(h*ng/mL)/(mg/kg) (Mice PK study)	DC50 (BTK) [nM]	Dmax % (BTK) [%]	oral PK profile (comparison) (Mice PK study; oral)	Dmax (BTK) [%]
C[C@H]1CN(C2CCN(c3ccc4c(c3)C(=O)N(C3CCC(=O)NC3=O)C4=O)CC2)CCN1c1ccc(Nc2cc(-c3ccnc(N4CCn5c(cc6c5CC(C)(C)C6)C4=O)c3CO)cn(C)c2=O)nc1 (stereo partly drawn) [Example 2, 5-{4-[(3S)-4-{6-[(2′-{4,4-dimethyl-9-oxo-1,10-diazatricyclo[6.4.0.0^{2,6}]dodeca-2(6),7-dien-10-yl}-3′-(hydroxymethyl)-1-methyl-6-oxo-[3,4′-bipyridin]-5-yl)amino]pyridin-3-yl}-3-methylpiperazin-1-yl]piperidin-1-yl}-2-(2,6-dioxopiperidin-3-yl)isoindole-1,3-dione]	3,120 (h*ng/mL)/(mg/kg)	0.46	96	–	–
C[C@H]1CN([C@H]2CCN3c4ccc5c(c4OC[C@@H]3C2)C(=O)N(C2CCC(=O)NC2=O)C5=O)CCN1c1ccc(Nc2cc(-c3ccnc(N4CCn5c(cc6c5CC(C)(C)C6)C4=O)c3CO)cn(C)c2=O)nc1.Cl (some centres unmarked) [Example 18]	–	–	93	–	–
[2H]C([2H])([2H])n1cc(-c2ccnc(N3CCn4c(cc5c4CC(C)(C)C5)C3=O)c2CO)cc(Nc2ccc(N3CCN(C4CCN(c5ccc6c(c5)C(=O)N(C5CCC(=O)NC5=O)C6=O)CC4)C[C@@H]3C)cn2)c1=O (stereo partly drawn) [Example 22, 5-(4-((S)-4-(6-((2′-(7,7-dimethyl-1-oxo-1,3,4,6,7,8-hexahydro-2H-cyclopenta[4,5]pyrrolo[1,2-a]pyrazin-2-yl)-3′-(hydroxymethyl)-1-(methyl-d3)-6-oxo-1,6-dihydro-[3,4′-bipyridin]-5-yl)amino)pyridin-3-yl)-3-methylpiperazin-1-yl)piperidin-1-yl)-2-(2,6-dioxopiperidin-3-yl)isoindoline-1,3-dione]	3,822 (h*ng/mL)/(mg/kg)	1.1	–	better oral PK profile than Example 2	98
